In patent US20230124492A1, “COMPOSITIONS AND METHODS FOR SUBSTITUTED 7-(PIPERAZIN-1-YL)PYRAZOLO[1,5-A]PYRIMIDINE ANALOGS AS INHIBITORS OF KRAS” (The Board of Regents of the University of Texas System, priority 2019, published 2023):
Entries after “also recorded” stand apart in the source; their conditions may differ.

What was measured:
KRAS = KRAS (Homo sapiens, UniProt P01116, G12D); test: Microscale thermophoresis (MST) binding affinity to KRAS (Table 1); conditions: 100 nM labeled KRAS, read-out: kD (dissociation constant)
Chain of KRAS (P01116 whole entry G12D): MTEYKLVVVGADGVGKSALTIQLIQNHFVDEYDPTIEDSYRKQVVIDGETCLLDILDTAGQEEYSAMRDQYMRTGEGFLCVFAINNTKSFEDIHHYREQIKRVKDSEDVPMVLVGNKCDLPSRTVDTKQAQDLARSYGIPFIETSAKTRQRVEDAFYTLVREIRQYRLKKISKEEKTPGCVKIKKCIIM
Protocol: Measurement of compound binding affinity to KKRAS using microscale thermophoresis (MST). MST is based on the movement of molecules in response to temperature gradient. […] KRAS was buffer-exchanged in the labeling buffer (40 mM HEPES, pH 7.5, 5 mM MgCl2, and 500 mM NaCl) using a spin column (provided in the kit) The concentration of the eluted protein was adjusted (10 to 20 μM) and 2-3 fold concentration of the dye (in labeling buffer) was added (200 μL final volume), The solution was incubated for 30 minutes at room temperature in the dark. Labeled KRAS was purified using the column provided in the kit or MST measurements, 16 point serial dilutions of ligands were made in MST Assay Buffer (40 mM HEPES, pH 7.5, 5 mM MgCl2, 100 mM NaCl+0.05% Tween-20+2-4% DMSO) and added to 100 nM KRAS. The solutions were loaded in capillaries and measurements were done using 20% LED power and 40% MST power. The data were fit in Igor Pro using Hill equation or the function in the instrument software.
Microscale thermophoresis (MST) assays were used to measure the affinity of lead compound analogs for KRAS. In a typical experiment, 100 nM KRAS labeled with a dye amine-reactive red NT-647 from NanoTemper) was mixed with different concentrations of ligand and incubated in a binding buffer (40 mM HEPES, pH 7.5, 5 mM MgCl2, 150 mM NaCl, 0.05% polysorbate 20, and 2% DMSO) at room temperature for 10 min before being loaded into a capillary. Thermophoresis is carried out and dissociation constant calculated by monitoring changes in fluorescence intensity. A monolith NT.115 Reader from NanoTemper can be used for MST experiments, with 40% MST and 20% LED power.
Dissociation constants (IQ)) calculated from the thermophoresis results of selected compounds according to the present disclosure are presented in Table 1 below.
Note: For FIGS. 1A-H 1 (as well as one of the curves in FIGS. 2A-I), dissociation constant (Kd) was determined using either Microscale Thermophoresis (MST) or Intrinsic Fluorescence (IF) assay. MST assay uses fluorescence to monitor movement of molecules in response to temperature gradient created by infrared laser.

cancer cells = test: Proliferation of cancer cells; type: cell-based
KRAS effector binding = KRAS effector binding (Homo sapiens, UniProt P01116); test: Effector (Raf) binding to KRAS; type: biochemical
Chain of KRAS effector binding (P01116 1-188 isoform P01116-2): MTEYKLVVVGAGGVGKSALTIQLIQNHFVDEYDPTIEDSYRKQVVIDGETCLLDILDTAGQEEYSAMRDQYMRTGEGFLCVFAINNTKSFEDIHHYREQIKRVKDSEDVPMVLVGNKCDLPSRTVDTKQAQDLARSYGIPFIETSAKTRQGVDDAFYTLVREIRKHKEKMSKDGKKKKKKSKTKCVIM

GTP-KRAS = GTP-KRAS (Homo sapiens, UniProt P01116); test: Binding of lead compound to GTP-KRAS; conditions: active GTP-bound KRAS
Chain of GTP-KRAS (P01116 1-188 isoform P01116-2): as above

[1] = test system: KRAS-mediated MAPK signaling; test: KRAS-mediated MAPK signaling; type: cell-based
GTP-/GDP-bound NRAS = GTP-/GDP-bound NRAS (Homo sapiens, UniProt P01111); test: Binding of lead compound to GTP-/GDP-bound NRAS
Chain of GTP-/GDP-bound NRAS (P01111 whole entry): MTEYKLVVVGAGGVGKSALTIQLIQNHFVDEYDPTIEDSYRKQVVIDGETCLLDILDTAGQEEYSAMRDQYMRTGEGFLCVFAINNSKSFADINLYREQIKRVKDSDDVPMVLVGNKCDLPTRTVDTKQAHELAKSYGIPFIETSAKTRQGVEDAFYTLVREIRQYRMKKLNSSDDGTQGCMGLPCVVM

GTP-/GDP-bound HRAS = GTP-/GDP-bound HRAS (Homo sapiens, UniProt P01112); test: Binding of lead compound to GTP-/GDP-bound HRAS
Chain of GTP-/GDP-bound HRAS (P01112 whole entry): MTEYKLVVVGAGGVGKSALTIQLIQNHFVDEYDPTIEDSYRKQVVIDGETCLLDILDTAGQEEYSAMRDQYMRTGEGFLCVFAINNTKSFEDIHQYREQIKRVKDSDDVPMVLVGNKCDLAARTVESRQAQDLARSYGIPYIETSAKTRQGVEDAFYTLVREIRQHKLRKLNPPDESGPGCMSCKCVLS

GDP-KRAS = GDP-KRAS (Homo sapiens, UniProt P01116); test: Binding of lead compound to GDP-KRAS (inactive KRAS); conditions: GDP-bound
Chain of GDP-KRAS (P01116 1-188 isoform P01116-2): as the sequence (P01116 1-188 isoform P01116-2) above

SMILES: Cc1nn2c(N3CCN(CCO)CC3)cc(-c3ccccc3)nc2c1-c1ccccc1 [Compound C1]
- Kd (KRAS): 870 ± 180 nM
- Effect on proliferation of cancer cells (cancer cells): inhibit
- Effect on effector binding (KRAS effector binding): significantly reduces; also recorded: disrupt
- Affinity for GTP-KRAS (GTP-KRAS): sub micromolar affinity; also recorded: high affinity
- Effect on KRAS-mediated MAPK signaling / signal transduction through KRAS [1]: inhibits; also recorded: reduce
- Affinity for GTP-/GDP-bound NRAS (GTP-/GDP-bound NRAS): much weaker affinity; also recorded: does not bind
- Affinity for GTP-/GDP-bound HRAS (GTP-/GDP-bound HRAS): much weaker affinity; also recorded: does not bind
- Affinity for GDP-KRAS (inactive KRAS) (GDP-KRAS): much weaker affinity; also recorded: does not bind
